US9040523B2, “Antifungal 5,6-dihydro-4H-pyrrolo[1,2-α][1,4]-benzodiazepines and 6H-pyrrolo[1,2-α][1,4]benzodiazepines substituted with benzene derivatives” (JANSSEN PHARMACEUTICA NV, priority 2010, dated 2015)

Legend:
Cytochrome P450 1A2 = biological target: T1, Cytochrome P450 1A2 (Homo sapiens, UniProt P05177); experiment: Human liver microsomal cytochrome P450 cocktail inhibition assay, Protocol C; conditions: human liver microsomes 0.2 mg/ml; probe phenacetin 80 microM
T1 sequence (P05177 1-516): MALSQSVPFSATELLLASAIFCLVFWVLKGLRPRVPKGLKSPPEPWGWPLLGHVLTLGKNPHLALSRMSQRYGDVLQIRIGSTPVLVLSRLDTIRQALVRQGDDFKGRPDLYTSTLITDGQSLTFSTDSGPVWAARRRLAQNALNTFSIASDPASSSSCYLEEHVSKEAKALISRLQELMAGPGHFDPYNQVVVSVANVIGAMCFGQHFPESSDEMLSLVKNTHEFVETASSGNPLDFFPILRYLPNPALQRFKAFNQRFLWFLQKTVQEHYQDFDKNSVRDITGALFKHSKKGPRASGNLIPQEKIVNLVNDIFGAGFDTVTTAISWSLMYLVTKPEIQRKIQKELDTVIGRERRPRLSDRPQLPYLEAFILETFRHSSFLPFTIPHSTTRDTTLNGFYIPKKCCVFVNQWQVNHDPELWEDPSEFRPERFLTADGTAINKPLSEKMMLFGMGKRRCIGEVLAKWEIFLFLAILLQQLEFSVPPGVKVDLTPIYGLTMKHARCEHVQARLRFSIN
Method: (§1) Probe substrates and final assay concentrations with the appropriate internal standard are outlined in Table 6a.
(§2) Assays were performed in 0.1 M phosphate buffer (pH 7.4), containing 0.2 mg/ml human liver microsomes (BD Gentest) and a probe substrate mix consisting of: phenacetin, tolbutamide, S-mephenyloin, dextromethorphan, amodiaquine and midazolam (Table 6a) and a range of test compound concentrations (0 to 30 micromolar) in a total volume of 100 microliters. After a 10 min pre-incubation at 37° C., the reaction was started with addition of NADPH at a final concentration of 1.0 mM. […] The samples are centrifuged for 10 min at 4° C. at 4000 rpm and 60 microliters supernatant is diluted with 180 microliters water. Each sample is injected onto a UPLC/MS system for the simultaneous measurement of the probe substrate metabolites and their associated deuterated internal standards. Percentage inhibition is calculated according to: %-inhibition=(1−Ri/R)*100, whereby Ri and R are the metabolite to internal standard peak area ratios in the presence and absence of inhibitor respectively.
(§3) Percentage inhibition data are plotted against the Log transformed test compound concentration and after curve fitting the IC50-value is determined.

Cytochrome P450 2C19 = Cytochrome P450 2C19 (Homo sapiens, UniProt P33261); experiment: as above; conditions: 2C19_S-Meph pIC50, human liver microsomes 0.2 mg/ml; probe S-mephenytoin 30 microM
Method: as §1, §2, §3

Cytochrome P450 2C9 = Cytochrome P450 2C9 (Homo sapiens, UniProt P11712); experiment: as above; conditions: 2C9 Tolbut pIC50, human liver microsomes 0.2 mg/ml; probe tolbutamide 100 microM
Method: as §1, §2, §3

Cytochrome P450 2D6 = Cytochrome P450 2D6 (Homo sapiens, UniProt P10635); experiment: as above; conditions: 2D6_Dextro pIC50, human liver microsomes 0.2 mg/ml; probe dextromethorphan 3 microM
Method: as §1, §2, §3

Cytochrome P450 2C8 = biological target: T2, Cytochrome P450 2C8 (Homo sapiens, UniProt P10632); experiment: as above; format: in vitro ADME; conditions: human liver microsomes 0.2 mg/ml; probe amodiaquine 2 microM
T2 construct: tissue BD Gentest; host or cells: human liver microsomes
T2 sequence (P10632 1-490): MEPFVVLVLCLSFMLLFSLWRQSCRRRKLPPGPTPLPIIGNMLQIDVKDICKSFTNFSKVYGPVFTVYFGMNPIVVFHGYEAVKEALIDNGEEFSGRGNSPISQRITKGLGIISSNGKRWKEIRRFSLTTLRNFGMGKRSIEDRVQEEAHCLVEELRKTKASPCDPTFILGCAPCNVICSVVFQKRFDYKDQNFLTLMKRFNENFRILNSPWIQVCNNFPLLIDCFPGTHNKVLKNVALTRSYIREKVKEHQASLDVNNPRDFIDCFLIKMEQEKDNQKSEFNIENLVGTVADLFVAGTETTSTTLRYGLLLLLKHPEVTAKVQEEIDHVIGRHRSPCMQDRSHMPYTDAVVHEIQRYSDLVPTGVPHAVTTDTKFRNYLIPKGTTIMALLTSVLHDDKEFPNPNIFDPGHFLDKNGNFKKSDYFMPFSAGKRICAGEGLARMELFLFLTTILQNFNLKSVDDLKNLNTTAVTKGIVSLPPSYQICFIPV
Method: as §1, §2, §3

CYP3A4/5 = CYP3A4/5 (Homo sapiens, UniProt P08684); experiment: in vitro; conditions: liver microsomes, pH 7.4, probe midazolam (2 microM)
Method: as §1
After a 10 min pre-incubation at 37° C., the reaction was started with addition of NADPH at a final concentration of 1.0 mM. […] The samples are centrifuged for 10 min at 4° C. at 4000 rpm and 60 microliters supernatant is diluted with 180 microliters water. Each sample is injected onto a UPLC/MS system for the simultaneous measurement of the probe substrate metabolites and their associated deuterated internal standards.
as §3

[1] = tested on: Sporothrix schenkii B62482; experiment: Antifungal activity in vitro (resazurin susceptibility screen), Inf. A; format: cell-based; conditions: Sporothrix, B62482, Sporothrix schenkii B62482; 27 °C, 4 days, resa time 24 hours; highest in-test concentration 64 μM; read-out: Inf. A pIC50 (converted)
How it was run: (§4)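 Each well is seeded with 10^3 colony-forming units against spotted compound dilutions; untreated fungus and plain RPMI-MOPS define the 100% and 0% growth limits.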

Microsporum canis B68128 = experiment: Antifungal activity in vitro (resazurin susceptibility screen), Inf. B; format: cell-based; conditions: Microsporum canis, B68128, Microsporum canis B68128; 27 °C, 9 days, resa time 24 hours; read-out: Inf. B pIC50 (converted)
How it was run: (§5)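 Each well was inoculated with 10^3 cfu of fungus onto dried, pre-spotted compound serial dilutions in RPMI-MOPS medium, with fungal growth read by resazurin. Growth was referenced to drug-free culture (100%) and medium-only (0%) controls on each plate.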

[2] = tested on: Trichophyton rubrum B68183; experiment: Antifungal activity in vitro (resazurin susceptibility screen), Inf. C; format: cell-based; conditions: Trichophyton rubrum B68183; 27 °C, 7 days, resa time 24 hours; read-out: Inf. C pIC50 (converted)
How it was run: as §4

[3] = tested on: Candida parapsilosis B66126; experiment: Antifungal activity in vitro (resazurin susceptibility screen), Inf. D; format: cell-based; conditions: Lodderomyces parapsilosis; Candida parapsilosis B66126; 37 °C, 24 hours, resa time 4 hours; read-out: Inf. D pIC50 (converted)
How it was run: as §5

[4] = tested on: Aspergillus fumigatus B42928; experiment: Antifungal activity in vitro (resazurin susceptibility screen), Inf. E; format: cell-based; conditions: Aspergillus fumigatus B42928; 27 °C, 48 hours, resa time 17 hours; read-out: Inf. E pIC50 (converted)
How it was run: as §4

[5] = tested on: Cryptococcus neoformans B66663; experiment: Antifungal activity in vitro (resazurin susceptibility screen), Inf. F; format: cell-based; conditions: Cryptococcus neoformans, B66663, Cryptococcus neoformans B66663; 37 °C, 24 hours, resa time 4 hours; read-out: Inf. F pIC50 (converted)
How it was run: as §4

[6] = tested on: Trichophyton mentagrophytes B70554; experiment: Antifungal activity in vitro (resazurin susceptibility screen), Inf. G; format: cell-based; conditions: Trichophyton mentagrophytes, B70554, Trichophyton mentagrophytes B70554; 27 °C, 7 days, resa time 24 hours; read-out: Inf. G pIC50 (converted)
How it was run: as §5

[7] = tested on: Scedosporium apiospermum IHEM3817; experiment: Antifungal activity in vitro (resazurin susceptibility screen), Inf. H; format: cell-based; conditions: 37 °C, 48 hours, resa time 17 hours, read-out: Inf. H pIC50 (converted)
Method: (§6) The standard susceptibility screen was performed in 96-well plates (U-bottom, Greiner Bio-One). […] These serial dilutions (10 n1) were then spotted onto test-plates that could be stored in the dark at 4° C. for a maximum period of 2 weeks. […] The different fungal species/isolates (Table 3a) were cryopreserved and 1/1000 diluted in medium just prior to use. A standard inoculum of 200 μl containing 10^3 colony-forming unit (cfu) was then added to each well. A positive control (100% growth=fungal culture without antifungal) and a negative control (0% growth ═RPMI-MOPS medium) were included on each plate. […] [table]

[8] = tested on: Scedosporium prolificans IHEM21157; experiment: Antifungal activity in vitro (resazurin susceptibility screen), Inf. I; format: cell-based; conditions: Lomentospora prolificans, 37 °C, 48 hours, resa time 17 hours, read-out: Inf. I pIC50 (converted)
Method: as §6

Rhizopus oryzae IHEM5223 = experiment: Antifungal activity in vitro (resazurin susceptibility screen), Inf. J; format: cell-based; conditions: Rhizopus arrhizus, 37 °C, 24 hours, resa time 6 hours, read-out: Inf. J pIC50 (converted)
Method: as §6

[9] = tested on: Rhizomucor miehei IHEM13391; experiment: Antifungal activity in vitro (resazurin susceptibility screen), Inf. K; format: cell-based; conditions: 37 °C, 48 hours, resa time 17 hours, read-out: Inf. K pIC50 (converted)
Method: as §6

[10] = Liver metabolic stability assay, hLM; format: in vitro ADME, human; conditions: human liver microsomes, 1 mg protein/ml, 5 μM test compound, 15 min, 37 °C
[11] = Liver metabolic stability assay, mLM; format: in vitro ADME; conditions: mouse liver microsomes, 1 mg protein/ml, 5 μM test compound, 15 min, 37 °C
Method: (§7) Liver preparations (microsomal fractions) were obtained from BD Gentest (San Jose, Calif., US). Metabolic stability was assessed using the following assay conditions. […] The mixture was pre-incubated at 37° C. for 5 min and the enzymatic reaction was started by addition of 5 μM test compound. After 0 (control) and 15 minutes (min), the reactions were terminated by addition of […] (500 μl). The precipitated material was removed by centrifugation at 1200 g for 10 min. The supernatant was analysed by LC-MS/MS on a ThermoFinnigan LCQ Deca XP ion-trap mass spectrometer equipped with an atmospheric pressure chemical ionisation source. Calculation of %-compound remaining was as described by Kantharaj et al. 2003 ((Kantharaj E., Tuytelaars A, Proost P E A, Ongel Z, van […] (2003). Simultaneous measurement of drug metabolic stability and identification of metabolites using ion-trap mass spectrometry.

[12] = Liver metabolic stability assay, gpLM; format: in vitro ADME, guinea pig; conditions: guinea pig microsomes, 1 mg protein/ml, 5 μM test compound, 15 min, 37 °C
Method: as §7

Cytochrome P450 2C9, sequence (P11712 whole entry): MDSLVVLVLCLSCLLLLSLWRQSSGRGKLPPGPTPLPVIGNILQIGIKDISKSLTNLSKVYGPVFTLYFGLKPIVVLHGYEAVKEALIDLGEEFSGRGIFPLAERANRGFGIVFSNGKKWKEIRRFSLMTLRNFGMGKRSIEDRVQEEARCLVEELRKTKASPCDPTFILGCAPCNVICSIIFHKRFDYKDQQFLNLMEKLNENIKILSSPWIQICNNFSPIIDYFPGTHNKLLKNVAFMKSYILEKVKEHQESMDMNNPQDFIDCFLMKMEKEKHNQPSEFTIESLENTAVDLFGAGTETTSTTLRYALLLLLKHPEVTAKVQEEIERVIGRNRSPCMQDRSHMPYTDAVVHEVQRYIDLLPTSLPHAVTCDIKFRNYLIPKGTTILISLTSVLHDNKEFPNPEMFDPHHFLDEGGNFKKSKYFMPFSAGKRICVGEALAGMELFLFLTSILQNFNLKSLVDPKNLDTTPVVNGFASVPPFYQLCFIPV
Cytochrome P450 2D6, sequence (P10635 whole entry): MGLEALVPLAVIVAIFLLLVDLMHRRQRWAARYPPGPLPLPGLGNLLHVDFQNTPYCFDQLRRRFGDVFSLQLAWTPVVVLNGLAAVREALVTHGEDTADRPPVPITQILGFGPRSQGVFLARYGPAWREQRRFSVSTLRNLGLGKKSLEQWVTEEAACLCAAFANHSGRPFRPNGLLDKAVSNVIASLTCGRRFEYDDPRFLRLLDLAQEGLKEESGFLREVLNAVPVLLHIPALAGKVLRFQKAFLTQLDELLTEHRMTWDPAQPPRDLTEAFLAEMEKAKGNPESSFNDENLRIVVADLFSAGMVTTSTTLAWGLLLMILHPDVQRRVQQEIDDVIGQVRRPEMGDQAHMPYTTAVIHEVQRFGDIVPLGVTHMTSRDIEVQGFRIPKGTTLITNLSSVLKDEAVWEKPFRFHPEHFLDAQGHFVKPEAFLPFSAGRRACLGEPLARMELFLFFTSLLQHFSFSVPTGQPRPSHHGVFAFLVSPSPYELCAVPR
Cytochrome P450 2C19, sequence (P33261 whole entry): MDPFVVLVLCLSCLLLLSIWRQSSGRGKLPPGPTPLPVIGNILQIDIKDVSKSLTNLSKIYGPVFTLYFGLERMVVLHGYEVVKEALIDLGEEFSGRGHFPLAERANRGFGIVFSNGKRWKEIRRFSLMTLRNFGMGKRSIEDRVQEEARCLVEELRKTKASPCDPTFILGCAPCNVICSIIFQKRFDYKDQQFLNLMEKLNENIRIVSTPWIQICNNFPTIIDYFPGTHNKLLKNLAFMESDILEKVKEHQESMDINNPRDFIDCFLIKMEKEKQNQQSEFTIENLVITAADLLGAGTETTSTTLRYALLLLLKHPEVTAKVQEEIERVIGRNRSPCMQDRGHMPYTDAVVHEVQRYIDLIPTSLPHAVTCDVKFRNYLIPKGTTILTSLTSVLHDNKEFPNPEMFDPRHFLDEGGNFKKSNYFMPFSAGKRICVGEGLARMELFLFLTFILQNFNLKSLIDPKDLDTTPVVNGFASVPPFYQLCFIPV
CYP3A4/5, sequence (P08684 2-503): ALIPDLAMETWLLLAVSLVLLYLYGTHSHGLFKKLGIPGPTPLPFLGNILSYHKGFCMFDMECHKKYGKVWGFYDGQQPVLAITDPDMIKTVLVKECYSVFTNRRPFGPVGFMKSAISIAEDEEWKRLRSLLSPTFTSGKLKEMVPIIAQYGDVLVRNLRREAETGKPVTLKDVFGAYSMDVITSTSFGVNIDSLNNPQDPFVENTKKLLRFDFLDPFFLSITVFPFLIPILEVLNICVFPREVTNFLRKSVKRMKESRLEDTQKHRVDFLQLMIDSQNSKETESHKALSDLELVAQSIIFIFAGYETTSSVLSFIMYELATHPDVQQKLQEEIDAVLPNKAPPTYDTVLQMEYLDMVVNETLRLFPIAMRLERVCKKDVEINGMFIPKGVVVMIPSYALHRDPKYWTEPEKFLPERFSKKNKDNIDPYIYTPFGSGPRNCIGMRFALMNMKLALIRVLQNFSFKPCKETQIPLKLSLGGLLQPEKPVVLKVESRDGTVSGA

In the case of `Br.CCc1ccc(C2NCc3c(Cl)cccc3-n3cccc32)cc1` (stereo not drawn), the “1A2_Phen pIC50” value (Cytochrome P450 1A2) is reported as under 5.0, the IC50 (Cytochrome P450 2C19) is reported as 0.794 µM and the IC50 (Cytochrome P450 2C9) is reported as 7.94 µM. For the same compound, the IC50 (Cytochrome P450 2D6) was 2 µM, the “2C8_Amod pIC50” value (Cytochrome P450 2C8) was under 5.0 and the IC50 at 10 min (CYP3A4/5) was over 10 µM.
For `CC(=O)c1ccc(C2=NCc3c(Cl)cccc3-n3cccc32)cc1` [Compound 17, 1-[4-(7-chloro-6H-pyrrolo[1,2-a][1,4]benzodiazepin-4-yl)phenyl]-ethanone], the IC50 [1] was over 31.6 µM, the IC50 (Microsporum canis B68128) was 0.2 µM and the IC50 [2] was 0.0398 µM. For the same compound, the IC50 [3] was over 31.6 µM, the IC50 [4] was over 31.6 µM and the IC50 [5] was over 31.6 µM. For the same compound, the IC50 [6] was 0.251 µM, the IC50 [7] was over 63.1 µM and the IC50 [8] was over 63.1 µM. The IC50 (Rhizopus oryzae IHEM5223) was over 63.1 µM, the IC50 [9] was over 63.1 µM and the “%-compound metabolised_Met_hLM” value [10] was 50%. The “%-compound metabolised Met_mLM” value [11] was 70%, the “%-compound metabolised Met_gpLM” value [12] was 84% and the melting point was 252.3 to 252.6 °C.
